The subject of experiment [1] is HT29 cells. The experiment can be described thus: Inhibition of HT29 colon adenocarcinoma cell growth/proliferation. The format is cell-based, human. Conditions: for Rank order, inhibition of HT-29 tumor cell proliferation: 1 = greatest inhibition, 5 = least inhibition. The procedure:
(§1) We examined the effect of several of the terpenes on certain types of cell growth. […] Additionally, growth of HT29 (human colon adenocarcinoma) cells was inhibited by 80% by 1 mM perillyl alcohol.

Experiment [2] relates to DMBA rat mammary tumor. The experiment can be described thus: Dietary perillic acid methyl ester-induced rat mammary tumor regression. The format is in vivo, Wistar-Furth rat. Conditions: 0.5% perillic acid methyl ester diet, individual rat tumors. As to the method: Inbred female Wistar-Furth rats were given 50 mg/kg DMBA at 50-55 days of age. Upon development of a mammary tumor with the largest diameter≥10 mm, the rat was assigned to 0.5% perillic acid methyl ester diet and fed ad libitum. The 0.5% perillic acid methyl ester diet (weight compound/weight ground Teklad rat/mouse 4% meal/chow) was prepared fresh every 7-10 days. Fresh diet was given to rats daily. All rats were weighed and palpated weekly. The study was terminated at 6 weeks after initial diet administration.

For experiment [3], the system named is rat mammary carcinoma. The experiment can be described thus: Comparison of dietary perillyl alcohol and perillic acid methyl ester as inducers of rat mammary carcinoma regression. The class given is in vivo, Wistar-Furth rat. Particulars: 0.5% PAME diet. The procedure: Inbred female Wistar-Furth rats were given 50 mg/kg DMBA at 50-55 days of age. Upon development of a mammary tumor with the largest diameter≥10 mm, the rat was assigned to 0.5% perillic acid methyl ester diet and fed ad libitum. The 0.5% perillic acid methyl ester diet (weight compound/weight ground Teklad rat/mouse 4% meal/chow) was prepared fresh every 7-10 days. Fresh diet was given to rats daily. All rats were weighed and palpated weekly. The study was terminated at 6 weeks after initial diet administration. The following tumor regression data was acquired:
We compared the effects of PAME and POH in terms of their ability to regress rat mammary carcinomas. Table 8 records our comparison. In summary, a 0.5% PAME diet was effective, while a 0.5% POH diet was only 10% effective. Diets of 2% POH were roughly 64-70% effective. While 2% POH is tolerated by a mammal, on a practical level PAME is preferred because a lower dose is sufficient.

Experiment [4] deals with M600B cells. The experiment can be described thus: M600B cell growth inhibition (FIG. 4). The format is cell-based. Conditions: M600B (human) cells. The procedure: (§2) NIH3T3 (mouse embryo) cells were obtained from the American Type Culture Collection and were grown in Dulbecco's modified Eagle's medium supplemented with 10% calf serum. M600B immortalized human mammary epithelial cells (Stampfer, M.R., 1985, J. Tissue Culture Methods 9:107-115) were, obtained from Dr. Martha Stampfer and were grown in supplemented HCDB 170 medium (Hammond, et al. (1984) Proc. Natl. Acad. Sci U.S.A. 81:5435-5439), as described previously (Stampfer, et al. (1985) Proc. Natl. Acad. Sci U.S.A. 82:2394-2398; Eldridge, et al. (1989) Cancer Res. 49:4326-4331).
(§3) All cells were maintained in 100-mm dishes at 37° C. in a humidified 5% CO2 atmosphere. Viable cells were distinguished from nonviable cells by counting azure II/methylene blue-stained colonies 10 days after the cells were plated at a density of 100 cells per dish. Trypan blue exclusion was measured by incubating cells for 1 min with one drop of trypan blue per 10 ml of cells. Viable (colorless) and nonviable (blue) cells were then counted on a hemocytometer.
as §1

The test system of experiment [5] is 21-26 kDa proteins. The experiment can be described thus: Protein isoprenylation inhibition in NIH3T3 cells (SDS-PAGE fluorography). The class given is cell-based, mouse. Particulars: all cell types examined. As to the method: "Isoprenylation" is the addition of a multiple of the 5 carbon isoprene unit to a protein. Our experiments in isoprenylation are reported at Crowell, et al. 1991, J. Biol. Chem. 266:17679-17685. To test whether a specific monoterpene affects isoprenylation of proteins in cells, […] were incubated with a radioactive isoprene precursor and 0-5 mM of the test monoterpene and then subjected to SDS-PAGE. Because they carried a radioactive label, isoprenylated proteins were visualized by fluorography. As a control, cells were incubated without the monoterpene.
Cells were harvested after trypsin treatment, washed twice with phosphate-buffered saline, suspended in electrophoresis sample buffer (Laemmli, U.K., 1970, Nature 227:680-685), and either analyzed immediately or stored at -20° C. Whole cell extracts were analyzed by SDS-PAGE on 16-cm×18-cm×0.75-mm gels by the method of Laemmli (supra). The acrylamide concentrations were 5% for the stacking gel and 12% for the separating gel. Gels were stained with Coomassie Brilliant Blue, equilibrated for 20 min in Amplify (Amersham Corp.) fluorographic reagent, dried under vacuum at 65° C., and exposed to preflashed Kodak X-Omat AR film as described by Laskey and Mills (1975, Eur. J. Biochem, 56:335-341). Some fluorograms were analyzed further by densitometry. Where indicated, gels were sliced, dissolved at 50° C. for 3 hours in 0.5 ml of water+0.5 ml of Solvable (Amersham), and then analyzed by scintillation spectrometry in 10 ml of Atom light (Amersham) mixture. Protein content was measured by the method of Lowry, et al. (1951, J. Biol. Chem. 193:265-275).
FIG. 1 depicts the structures of certain monoterpenes.
The degree of isoprenylation was evaluated by the amount of labeled protein present in the 21-26 kDa range, as evidenced by fluorography.

The test system of experiment [6] is NIH3T3 cells. The experiment can be described thus: NIH3T3 cell growth inhibition (FIG. 3). Particulars: NIH3T3 (murine) cells. The format is cell-based, mouse. As to the method:
as §2, §3, §1

For experiment [7], the system named is 21-26 kDa proteins. The experiment can be described thus: Protein isoprenylation inhibition in M600B human mammary epithelial cells. Conditions: 5 mM.
Description: To test whether a specific monoterpene affects isoprenylation of proteins in cells, cell extracts were incubated with a radioactive isoprene precursor and 0-5 mM of the test monoterpene and then subjected to SDS-PAGE. Because they carried a radioactive label, isoprenylated proteins were visualized by fluorography. As a control, cells were incubated without the monoterpene.
For both isoprenylation and cell growth assays, the monoterpenes were mixed with prewarmed (37° C.) medium containing 10% calf serum, and then the monoterpene-containing medium was added to cells. The relative effects of various monoterpenes on protein isoprenylation were compared by comparison of the relative intensity of bands on fluorograms from [^14 C]-mevalonate-labelled cells treated with each monoterpene.
Samples from each cell line were then analyzed on the same gel.
Setting [8] is: 6 weeks, second comparison, listed as PAME.

Values joined by “and” are separate entries in the source; they are usually repeats but may differ in a detail not shown here. Identical values can stand only once.

For the compound `C=C(C)C1CC=C(C=O)CC1` (stereo not shown) [Perillylaldehyde, reference compound], the “Rank order, inhibition of HT-29 tumor cell proliferation” value (from here on “Rank order, inhibition”) in experiment [1] came out at 3.

For `C=C(C)C1CC=C(C(=O)OC)CC1` (stereo not shown) [perillic acid methyl ester], the “time (of tumor size change)” value in experiment [2] is 6 wks and 5 wks and 4 wks and 3 wks and 2 wks. The effectiveness of diet result in experiment [3] is “effective”. For the same compound, in experiment [3] (6 weeks, second comparison), the “no regression (tumors)” value was 10 of 19, the no response turned out to be 1, the “partial regression >1/2 original diameter (%)” value is 47% and the “partial regression >1/2 original diameter (tumors)” value is recorded as 9 of 19. Besides, in experiment [3] (6 weeks, second comparison), the small regression response is listed as 4 of 19 and the “some growth of tumor” value is listed as 5 of 19. Besides, in experiment [3] (setting [8]), the “no regression (tumors)” value is given as 10/19, the no response is on record as 1/19, the “partial regression >1/2 original diameter (tumors)” value is given as 9/19 and the small regression response is on record as 4/19. In addition, in experiment [3] (setting [8]), the “some growth of tumor” value is on record as 5/19. Further, in experiment [1], the “potency in cell proliferation tests versus perillyl alcohol” value is “more potent in cell proliferation, tests than perillyl alcohol” and the “Rank order, inhibition” value was determined as 1. Further, the IC50 in experiment [1] (Homo sapiens, HT-29, read-out: IC50 HT29 tumor cell proliferation) stood at 50 µM.

Consider `C=C(C)[C@@H]1CC=C(C(=O)O)CC1` [perillic acid], for which the “inhibition of cell growth” value in experiment [4] and in experiment [6] was “significantly inhibited cell growth in a dose-dependent manner” in each case. The “inhibition of isoprenylation in all cases examined” value in experiment [5] is “inhibition of isoprenylation”. Moreover, in experiment [1], the “Rank order, inhibition” value was 4. Moreover, in experiment [7], the “isoprenylation of 21-26 kDa proteins” value is recorded as “inhibited significantly”.

The values are drawn from patent publication US5470877A, “Uses of perillic acid methyl ester” (Wisconsin Alumni Research Foundation, priority 1994, dated 1995).
